Data reported in US10106556B2, “Heterocyclic compound” (TAKEDA PHARMACEUTICAL COMPANY LIMITED, priority 2015, dated 2018).

These molecules were tested against T1, His-hMAGL (recombinant polyhistidine tagged human MAGL protein) (Homo sapiens, UniProt Q99685) (assay: Measurement of MAGL inhibitory activity (arachidonic acid production from 2-arachidonylglycerol, RapidFire-mass spectrometry)). Details: MAGL inhibitory rate at 10 μM test compound; 60 min preincubation with His-hMAGL, 2-arachidonylglycerol substrate, 10 min reaction at room temperature.
T1 construct: made in house; host or cells: E. coli BL21(DE3)
T1 sequence (Q99685 1-303): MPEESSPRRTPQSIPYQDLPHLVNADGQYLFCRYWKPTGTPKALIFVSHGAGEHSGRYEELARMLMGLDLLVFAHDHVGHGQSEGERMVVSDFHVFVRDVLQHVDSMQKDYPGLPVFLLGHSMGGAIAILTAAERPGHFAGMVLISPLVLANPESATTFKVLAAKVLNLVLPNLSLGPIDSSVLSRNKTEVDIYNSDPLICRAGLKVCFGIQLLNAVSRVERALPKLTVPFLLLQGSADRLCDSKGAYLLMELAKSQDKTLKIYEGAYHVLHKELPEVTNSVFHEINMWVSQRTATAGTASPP
Type: biochemical
Method in brief: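 Recombinant His-tagged human MAGL converted 2-arachidonylglycerol to arachidonic acid. Reactions received acetonitrile with 3 μM arachidonic acid-d8 as internal standard, and product was quantified by RapidFire SPE (C4) with negative-mode SRM mass spectrometry. Percent inhibition was calculated against compound-free and enzyme-free controls.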

Point of comparison: `CC(C)Cn1cc(-c2cc(Cl)ccc2OCC2CN(C(=O)c3cc4c(cc3F)OCC(=O)N4)C2)cn1` [Example 224, 6-((3-((4-chloro-2-(1-isobutyl-1H-pyrazol-4-yl)phenoxy)methyl)azetidin-1-yl)carbonyl)-7-fluoro-2H-1,4-benzoxazin-3(4H)-one], inhibition at 10 µM 103%. Against it:
- Cn1ccc(-c2cc(Cl)ccc2OCC2CN(C(=O)c3cc4c(cc3F)OCC(=O)N4)C2)n1 [Example 216, 6-((3-((4-chloro-2-(1-methyl-1H-pyrazol-3-yl)phenoxy)methyl)azetidin-1-yl)carbonyl)-7-fluoro-2H-1,4-benzoxazin-3(4H)-one] — lower, 97%
- Cc1cc(-c2cc(Cl)ccc2OCC2CN(C(=O)c3cc4c(cc3F)OCC(=O)N4)C2)nn1C [Example 217, 6-((3-((4-chloro-2-(1,5-dimethyl-1H-pyrazol-3-yl)phenoxy)methyl)azetidin-1-yl)carbonyl)-7-fluoro-2H-1,4-benzoxazin-3(4H)-one] — higher, 104%
- Cn1nccc1-c1cc(Cl)ccc1OCC1CN(C(=O)c2cc3c(cc2F)OCC(=O)N3)C1 [Example 218, 6-((3-((4-chloro-2-(1-methyl-1H-pyrazol-5-yl)phenoxy)methyl)azetidin-1-yl)carbonyl)-7-fluoro-2H-1,4-benzoxazin-3(4H)-one] — lower, 99%
- Cn1cccc1-c1cc(Cl)ccc1OCC1CN(C(=O)c2cc3c(cc2F)OCC(=O)N3)C1 [Example 219, 6-((3-((4-chloro-2-(1-methyl-1H-pyrrol-2-yl)phenoxy)methyl)azetidin-1-yl)carbonyl)-7-fluoro-2H-1,4-benzoxazin-3(4H)-one] — lower, 101%
- O=C1COc2cc(F)c(C(=O)N3CC(COc4ccc(Cl)cc4-c4ccc(C(F)(F)F)nc4)C3)cc2N1 [Example 220, 6-((3-((4-chloro-2-(6-(trifluoromethyl)pyridin-3-yl)phenoxy)methyl)azetidin-1-yl)carbonyl)-7-fluoro-2H-1,4-benzoxazin-3(4H)-one] — lower, 102%
- O=C1COc2cc(F)c(C(=O)N3CC(COc4ccc(Cl)cc4-c4ccc5c(c4)CCO5)C3)cc2N1 [Example 221, 6-((3-((4-chloro-2-(2,3-dihydro-1-benzofuran-5-yl)phenoxy)methyl)azetidin-1-yl)carbonyl)-7-fluoro-2H-1,4-benzoxazin-3(4H)-one] — lower, 102%
- O=C1COc2cc(F)c(C(=O)N3CC(COc4ccc(Cl)cc4-c4cnc(C(F)(F)F)nc4)C3)cc2N1 [Example 222, 6-((3-((4-chloro-2-(2-(trifluoromethyl)pyrimidin-5-yl)phenoxy)methyl)azetidin-1-yl)carbonyl)-7-fluoro-2H-1,4-benzoxazin-3(4H)-one] — lower, 101%
- Cc1cc(-c2cc(Cl)ccc2OCC2CN(C(=O)c3cc4c(cc3F)OCC(=O)N4)C2)n(C)n1 [Example 223, 6-((3-((4-chloro-2-(1,3-dimethyl-1H-pyrazol-5-yl)phenoxy)methyl)azetidin-1-yl)carbonyl)-7-fluoro-2H-1,4-benzoxazin-3(4H)-one] — lower, 102%
- O=C1COc2cc(F)c(C(=O)N3CC(COCC4CC4)C3)cc2N1 [Example 225, 6-((3-((cyclopropylmethoxy)methyl)azetidin-1-yl)carbonyl)-7-fluoro-2H-1,4-benzoxazin-3(4H)-one] — lower, 85%
- Cc1cc(Cl)ccc1OCC1CN(C(=O)c2cc3c(cc2F)OCC(=O)N3)C1 [Example 226, 6-((3-((4-chloro-2-methylphenoxy)methyl)azetidin-1-yl)carbonyl)-7-fluoro-2H-1,4-benzoxazin-3(4H)-one] — lower, 101%
- O=C1COc2cc(F)c(C(=O)N3CC(COc4ccc(-c5ccccn5)cc4F)C3)cc2N1 [Example 227, 7-fluoro-6-((3-((2-fluoro-4-(pyridin-2-yl)phenoxy)methyl)azetidin-1-yl)carbonyl)-2H-1,4-benzoxazin-3(4H)-one] — lower, 97%
- O=C1COc2cc(F)c(C(=O)N3CC(COc4ccc(-c5ccc(F)cn5)cc4F)C3)cc2N1 [Example 228, 7-fluoro-6-((3-((2-fluoro-4-(5-fluoropyridin-2-yl)phenoxy)methyl)azetidin-1-yl)carbonyl)-2H-1,4-benzoxazin-3(4H)-one] — lower, 94%
- O=C1COc2cc(F)c(C(=O)N3CC(COc4ccc(-c5ccc(Cl)cn5)cc4F)C3)cc2N1 [Example 229, 6-((3-((4-(5-chloropyridin-2-yl)-2-fluorophenoxy)methyl)azetidin-1-yl)carbonyl)-7-fluoro-2H-1,4-benzoxazin-3(4H)-one] — lower, 88%
- Cc1cccc(-c2ccc(OCC3CN(C(=O)c4cc5c(cc4F)OCC(=O)N5)C3)c(F)c2)n1 [Example 230, 7-fluoro-6-((3-((2-fluoro-4-(6-methylpyridin-2-yl)phenoxy)methyl)azetidin-1-yl)carbonyl)-2H-1,4-benzoxazin-3(4H)-one] — lower, 95%
- Cc1cccnc1-c1ccc(OCC2CN(C(=O)c3cc4c(cc3F)OCC(=O)N4)C2)c(F)c1 [Example 231, 7-fluoro-6-((3-((2-fluoro-4-(3-methylpyridin-2-yl)phenoxy)methyl)azetidin-1-yl)carbonyl)-2H-1,4-benzoxazin-3(4H)-one] — lower, 100%
- O=C1COc2cc(F)c(C(=O)N3CC(COc4ccc(-c5cccnc5Cl)cc4F)C3)cc2N1 [Example 232, 6-((3-((4-(2-chloropyridin-3-yl)-2-fluorophenoxy)methyl)azetidin-1-yl)carbonyl)-7-fluoro-2H-1,4-benzoxazin-3(4H)-one] — lower, 99%
- CCc1ncccc1-c1ccc(OCC2CN(C(=O)c3cc4c(cc3F)OCC(=O)N4)C2)c(F)c1 [Example 233, 6-((3-((4-(2-ethylpyridin-3-yl)-2-fluorophenoxy)methyl)azetidin-1-yl)carbonyl)-7-fluoro-2H-1,4-benzoxazin-3(4H)-one] — lower, 100%
- O=C1COc2cc(F)c(C(=O)N3CC(COc4ccc(-c5cncc(F)c5)cc4F)C3)cc2N1 [Example 234, 7-fluoro-6-((3-((2-fluoro-4-(5-fluoropyridin-3-yl)phenoxy)methyl)azetidin-1-yl)carbonyl)-2H-1,4-benzoxazin-3(4H)-one] — lower, 97%
- O=C1COc2cc(F)c(C(=O)N3CC(COc4ccc(-c5cncc(Cl)c5)cc4F)C3)cc2N1 [Example 235, 6-((3-((4-(5-chloropyridin-3-yl)-2-fluorophenoxy)methyl)azetidin-1-yl)carbonyl)-7-fluoro-2H-1,4-benzoxazin-3(4H)-one] — lower, 100%
- Cc1cncc(-c2ccc(OCC3CN(C(=O)c4cc5c(cc4F)OCC(=O)N5)C3)c(F)c2)c1 [Example 236, 7-fluoro-6-((3-((2-fluoro-4-(5-methylpyridin-3-yl)phenoxy)methyl)azetidin-1-yl)carbonyl)-2H-1,4-benzoxazin-3(4H)-one] — lower, 99%
- Cc1ccncc1-c1ccc(OCC2CN(C(=O)c3cc4c(cc3F)OCC(=O)N4)C2)c(F)c1 [Example 237, 7-fluoro-6-((3-((2-fluoro-4-(4-methylpyridin-3-yl)phenoxy)methyl)azetidin-1-yl)carbonyl)-2H-1,4-benzoxazin-3(4H)-one] — lower, 99%
- O=C1COc2cc(F)c(C(=O)N3CC(COc4ccc(-c5ccc(F)nc5)cc4F)C3)cc2N1 [Example 238, 7-fluoro-6-((3-((2-fluoro-4-(6-fluoropyridin-3-yl)phenoxy)methyl)azetidin-1-yl)carbonyl)-2H-1,4-benzoxazin-3(4H)-one] — lower, 99%
- O=C1COc2cc(F)c(C(=O)N3CC(COc4ccc(-c5ccncc5)cc4F)C3)cc2N1 [Example 239, 7-fluoro-6-((3-((2-fluoro-4-(pyridin-4-yl)phenoxy)methyl)azetidin-1-yl)carbonyl)-2H-1,4-benzoxazin-3(4H)-one] — lower, 100%
- O=C1COc2cc(F)c(C(=O)N3CC(COc4ccc(-c5ccnc(F)c5)cc4F)C3)cc2N1 [Example 240, 7-fluoro-6-((3-((2-fluoro-4-(2-fluoropyridin-4-yl)phenoxy)methyl)azetidin-1-yl)carbonyl)-2H-1,4-benzoxazin-3(4H)-one] — lower, 102%
- O=C1COc2cc(F)c(C(=O)N3CC(COc4ccc(-c5ccnc(Cl)c5)cc4F)C3)cc2N1 [Example 241, 6-((3-((4-(2-chloropyridin-4-yl)-2-fluorophenoxy)methyl)azetidin-1-yl)carbonyl)-7-fluoro-2H-1,4-benzoxazin-3(4H)-one] — lower, 101%
- O=C1COc2cc(F)c(C(=O)N3CC(COc4ccc(-c5ccncc5F)cc4F)C3)cc2N1 [Example 242, 7-fluoro-6-((3-((2-fluoro-4-(3-fluoropyridin-4-yl)phenoxy)methyl)azetidin-1-yl)carbonyl)-2H-1,4-benzoxazin-3(4H)-one] — lower, 100%
- O=C1COc2cc(F)c(C(=O)N3CC(COc4ccc(-c5ccncc5Cl)cc4F)C3)cc2N1 [Example 243, 6-((3-((4-(3-chloropyridin-4-yl)-2-fluorophenoxy)methyl)azetidin-1-yl)carbonyl)-7-fluoro-2H-1,4-benzoxazin-3(4H)-one] — lower, 101%
- O=C1COc2cc(F)c(C(=O)N3CC(COc4ccc(C5=CCOCC5)cc4F)C3)cc2N1 [Example 244, 6-((3-((4-(3,6-dihydro-2H-pyran-4-yl)-2-fluorophenoxy)methyl)azetidin-1-yl)carbonyl)-7-fluoro-2H-1,4-benzoxazin-3(4H)-one] — lower, 100%
